Each structure is given as a SMILES string. Counter-ions that a name gives are not always drawn.

The test system of one series is gastric acid secretion. To be noted: cited from earlier work.
In a further series the test system is gastric acid. To be noted: cited from earlier work.
For series [1], the system named is gastric acid in pylorus ligated rats. The series can be described thus: Inhibition effects on gastric acid in pylorus ligated rats. It counts as in vivo, Wistar rats. How it is done:
Experimental animals: six-week old clean Wistar rats, male, 140-180 g.
Experimental samples: part of the compounds of the present invention, which structural formula and chemical name are shown in Table 1. […] Before test, these compounds were dissolved with physiological saline.
Pylorus was ligated by passing a suture beneath gastric pylorus, the drugs were immediately administered through duodenum, in which the solvent group was administered with physiological saline in 2 mL/kg, […] The animals were executed after 6 h, laparotomized, esophagus was ligated near to diaphragmatic muscle, whole stomach was taken out, washed to remove blood, stomach contents were poured out, the acidity degree of gastric acid was tested with pH test paper, the stomach contents was then centrifuged at 3000 rpm for 10 min. The volume of the supernatant was metered, and 1 mL of the supernatant was titrated with 0.01 mol/L NaOH solution, phenolphthalein was used as indicator, the volume of NaOH was recorded, and the total acidity degree and total acid output of gastric juice were calculated. Gastric juice total acidity degree (mmol/L)=consumed volume of NaOH solution (mL)*0.01 mol/L (NaOH concentration)/1 mL (supernatant volume)*1000; 1 h total acid output (mmol/h)=total acidity degree (mmol/L)*gastric juice volume (mL)/6 h/1000.

The test system of series [2] is reflux esophagitis in rats. The series can be described thus: Effects on reflux esophagitis in rats. It counts as in vivo, Wistar rats. Set-up: Esophagitis index: scale not given here. To be noted: 20 mg/kg through duodenum, 5 h; for Esophagus injury score / Injury status: individual rats. How it is done: The rats were etherized, laparotomized, pylorus ligated, and ligated at the part between glandular stomach and rumen. After ligation, the drugs were immediately administered through duodenum, in which the groups of the test samples were administered with test samples in 20 mg/kg, the model group was administered with the same volume of solvent, and the abdomens were then closed. The rats were released to the fasting cage, subjected to fasting and water deprivation for 5 h and then executed by air embolism. The stomach and esophagus were taken out together, fixed with 1% formaldehyde in esophagus for 1 h, and then the injury of esophagus was observed.

Series [3] in a line: In vivo pharmacokinetic test in rats. Set-up: species or system Wistar rats. To be noted: male, Wistar, rat, plasma, rats. The method, then:
Experimental animals: male Wistar rats, 6 rats/compound, body weight 180-220 g, purchased from Shandong University, certificate no.: SCXK ( ? ) 20090001.
Experimental samples: Compound 1, Compound 29 and Compound 30 of the present invention, each of them is prepared according to the methods of the above examples, and dissolved in physiological saline before test.
Administration: as for intravenous push (I.V), Compound 1, Compound 29, Compound 30 were administered in a dose of 5 mg/kg, and a volume of 2 mL/kg; as for intragastric administration (P.O), Compound 1, Compound 29, Compound 30 were administered in a dose of 5 mg/kg, and a volume of 2 mL/kg. The rats were fasted without water deprivation for […] administration, and fed after 4 hours from the administration.
Blood collection: 0 h, 0.083 h, 0.25 h, 0.5 h, 1 h, 2 h, 4 h, 8 h, 24 h, at each time point, about 150 μL of whole blood was collected, centrifuged at 4° C. and 8000 rpm for 6 min using a low-temperature high-speed centrifuge, the separated plasma was frozen and stored at −80° C. in a refrigerator.
Analysis of plasma samples: as for Compound 1, Compound 29, Compound 30, 50 μL of plasma was taken, added with 120 μL internal standard solution (Tolbutamide, 5 ng/mL MeOH solution), subjected to 1500 rpm vortex for 2 min, then centrifuged at 14000 rpm for 5 min, the supernatant was collected, and analyzed by using LC-MS/MS. Calculation formula: absolute bioavailability F %=[AUC]INF(PO)*Dose(IV)/[AUC]INF(IV)*Dose(PO)
Wherein, AUCINF represents area under drug-time curve0→∞; Cmax represents peak drug concentration in blood; Tmax represents a time for reaching peak drug concentration in blood; F % represents absolute bioavailability; CL represents clearance rate; Vss represents apparent volume of distribution; T1/2 represents half-life period.

Where [4] appears, read: Table 3, 20 mg/kg through duodenum, 6 h after pylorus ligation.
Setting [5] is: Table 4, 30 mg/kg through duodenum, 6 h.
Setting [6] is: Table 4, 30 mg/kg through duodenum, 6 h, SD in neighbouring cell.

As to `COCCCOc1ccnc(C[S+]([O-])c2nc3ccccc3[nH]2)c1C` (stereo not shown) [Rabeprazole], in the series on gastric acid secretion, the “Activity against gastric acid secretion in vitro relative to Omeprazole” value is listed as 2-10 times. Moreover, in the series on gastric acid, the “Time to achieve the maximum acid inhibition effect” value is no more than 5 min. Besides, in the series with gastric acid (compared with Omeprazole), the Duration of action result is given as “shorter than that of Omeprazole”.
In series [1] (setting [4]), `COCCCOc1ccnc(C[S+]([O-])c2nc3cc4c(cc3[nH]2)OCC4)c1C` (stereo not shown) [Compound 1 (sodium salt)] registered a Gastric juice volume of 3.33 ± 0.97 mL, a Total acid output of 0.0276 ± 0.0194 mmol/h and a Total acidity degree of 47.85 ± 24.38 mmol/L. In addition, the “Acidity degree (pH value)” value in series [1] (Table 3, 20 mg/kg through duodenum, 6 h after pylorus ligation, average ± SD) was found to be 3.14 ± 1.31 pH value. In series [1] (setting [5]), the Gastric juice volume stood at 3.60 ± 0.88 mL and the “Volume of supernatant of gastric juice” value stood at 2.92 ± 0.71 mL. Further, in series [1] (setting [6]), the “Acidity degree (pH value)” value was 3.90 pH value, the Total acid output stood at 0.0141 mmol/h and the Total acidity degree is 28.98 mmol/L. Also, the Total acidity degree in series [1] (Table 5, 20 mg/kg, comparison with Compound 81 as control) was 54.52 ± 13.87 mmol/L. Also, the Esophagitis index in series [2] (6 rats per group, average ± SD) was 0.00 ± 0.00. Moreover, in series [2] (female rats), the Esophagus injury score came out at 0 and the Injury status result is listed as “Normal”. In addition, in series [2] (male rats), the Esophagus injury score came out at 0 and the Injury status result is on record as “Normal”. The clearance in series [3] (iv, I.V, 5 mg/kg, read-out: CL (converted)) is 32.5 mL/min/kg. Besides, the half-life in series [3] (iv, I.V, 5 mg/kg, read-out: T½ (converted)) is 10.3 min. For the same compound, the Vd in series [3] (iv, I.V, 5 mg/kg, read-out: Vss) turned out to be 0.255 L/kg. In addition, the bioavailability (commonly the share of a dose that reaches the circulation, judged against a reference dose that is usually intravenous) in series [3] (po, P.O 5 mg/kg vs I.V 5 mg/kg, read-out: F % (absolute bioavailability)) was determined as 26.2%. Besides, in series [3] (po, P.O, 5 mg/kg, read-out: AUCinf), the AUC(0-inf) came to 677 ng·h/mL. In addition, in series [3] (po, P.O, 5 mg/kg, read-out: Cmax), the Cmax – broadly, the peak of the concentration-time curve – came to 1860 ng/mL. In addition, the Tmax (in general, the time at which the peak concentration occurs) in series [3] (po, P.O, 5 mg/kg, read-out: Tmax) is 4.98 to 15 min.

These data come from patent US9315513B2, “Benzimidazole derivatives and their pharmaceutical compositions and uses” (XUANZHU PHARMA CO., LTD., priority 2010, dated 2016).
